Assay results published in patent US10144746B2 (GLOBAL BLOOD THERAPEUTICS, INC., priority 2015, dated 2018).

target: Human plasma kallikrein (Homo sapiens (Human), UniProt P03952); assay: In vitro plasma kallikrein inhibition assay (chromogenic substrate D-Pro-Phe-Arg-pNa, absorbance at 405 nm, IC50 determination); format: biochemical; settings: not given
Description: In Vitro Plasma Kallikrein Inhibition Assay
The chromogenic substrate D-Pro-Phe-Arg-pNa, 2HCl (BIOPHEN CS-31(02) from Hyphen BioMed, Neuville-Sur-oise, France) was dissolved in 5 mL deionized water and stored at 4° C. […] All other chemicals were of analytical grade.
A stock solution of 7 μM in 50% glycerol was stored at −20° C.
Enzyme reactions were conducted in “assay buffer” comprised of 20 mM HEPES at pH 7.4, 150 mM NaCl, 0.1% PEG-8000 and 0.01% Triton X-100.
Both enzyme and substrate were diluted in assay buffer.
Plate measurements were conducted using a SPECTROStar Nano reader (BMG Labtech, San Francisco, Calif., USA). […] We used discrete wavelength, precise, kinetic reads of 15 cycles with a 60 sec cycle time.
Determination of IC50 values
The test compound was dissolved in 100% DMSO. The compounds were serially diluted in DMSO in a 7 point dose response. For the assays, 66.5 μL of protease solution (protease in assay buffer) was added per well followed by the addition of 8.5 μL of compound in 100% DMSO. […] After 30 min. incubation at room temperature on an orbital shaker, the reactions were started by the addition of 10 μL substrate solution (in assay buffer, final assay concentration was 600 uM). After the addition of the substrate solution the final DMSO concentration was 10%. The plate was placed again on the shaker for 5 sec, spun at 2000 rpm for 5 sec and read on the spectrophotometer. […] The IC50 value was calculated from the plot of rate vs. inhibitor concentration by a 4 parameter logistic equation: y=A+((B−A)/([…]))
where y is the rate at the inhibitor concentration, x. A is the minimum y value at the highest inhibitor concentration and B is the y value in the absence of inhibitor, C is the IC50 value and D is the slope factor. The curve fitting was conducted with the non-linear regression routine of the analysis software XLfit (IDBS, version 5.3.1).

Sequence of Human plasma kallikrein (P03952 391-638): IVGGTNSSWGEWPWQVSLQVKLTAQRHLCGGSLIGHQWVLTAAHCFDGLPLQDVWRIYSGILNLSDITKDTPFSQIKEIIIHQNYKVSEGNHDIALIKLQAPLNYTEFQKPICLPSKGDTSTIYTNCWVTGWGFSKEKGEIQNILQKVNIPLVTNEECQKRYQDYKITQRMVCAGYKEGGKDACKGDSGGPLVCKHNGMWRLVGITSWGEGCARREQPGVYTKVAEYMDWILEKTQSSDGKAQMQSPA
Sequence of Human plasma kallikrein (P03952 20-390 partner): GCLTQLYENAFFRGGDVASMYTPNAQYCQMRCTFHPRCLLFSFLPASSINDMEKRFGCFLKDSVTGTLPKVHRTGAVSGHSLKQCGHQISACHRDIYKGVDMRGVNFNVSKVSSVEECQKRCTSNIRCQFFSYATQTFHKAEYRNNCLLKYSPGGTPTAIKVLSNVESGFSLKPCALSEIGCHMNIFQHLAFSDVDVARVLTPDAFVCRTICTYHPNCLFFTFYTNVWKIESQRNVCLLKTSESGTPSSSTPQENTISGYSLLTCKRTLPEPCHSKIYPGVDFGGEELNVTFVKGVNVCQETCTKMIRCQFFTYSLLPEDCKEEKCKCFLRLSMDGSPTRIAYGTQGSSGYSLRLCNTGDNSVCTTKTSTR

| SMILES | KLKB1 pIC50 |
| --- | --- |
| NC(=NO)c1cc(F)c(CNC(=O)c2ccc3c(c2)[C@@H]2O[C@H]3c3ccc(-c4ccc(F)cc4F)cc32)c(F)c1 [Example 266, (1R,8S)-N-({2,6-difluoro-4-[N′-hydroxy-carbamimidoyl]phenyl}methyl)-12-(2,4-difluorophenyl)-15-oxatetracyclo[6.6.1.0^2,^7.0^9,1^4]-pentadeca-2,4,6,9,11,13-hexaene-4-carboxamide] | 6.99 |
| NC(=NO)c1ccc(CNC(=O)c2ccc3c(c2)[C@@H]2O[C@H]3c3ccc(-c4ccc(F)cc4F)cc32)cc1 [Example 203, (1R,8S)-12-(2,4-difluorophenyl)-N-{[4-(N′-hydroxycarbamimidoyl)phenyl]methyl}-15-oxatetracyclo[6.6.1.0^2,^7.0^9,1^4] pentadeca-2,4,6,9,11,13-hexaene-4-carboxamide] | 5.98 |

same assay, conditions: read-out: KLKB1 pIC50 (converted)

| SMILES | IC50 [nM] |
| --- | --- |
| N=C(N)c1ccc(CNC(=O)c2ccc3c(c2)C2OC3c3ccc(-c4ccccc4)cc32)cc1 (racemic) [Example 189, (±)-N-[(4-carbamimidoylphenyl)methyl]-12-phenyl-15-oxatetracyclo[6.6.1.0^2,^7.0^9,1^4]-pentadeca-2,4,6,9,11,13-hexaene-4-carboxamide] | 4.57 |
| Cc1cc(N)nc(C)c1CNC(=O)c1ccc2c(c1)[C@@H]1O[C@H]2c2ccc(-c3cccc[n+]3[O-])cc21 (single isomer, unassigned) [Example 195] | 1050 |
| Cc1ccc(-c2ccc3c(c2)C2OC3c3ccc(C(=O)NCc4c(F)cc5c(c4C)CNC5)cc32)c(C#N)c1 (racemic) [Example 143, (±)-12-(2-cyano-4-methylphenyl)-N-[(6-fluoro-4-methyl-2,3-dihydro-1H-isoindol-5-yl)methyl]-15-oxatetracyclo [6.6.1.0^2,^7.0^9,1^4]pentadeca-2,4,6,9,11,13-hexaene-4-carboxamide] | 288 |
| CCc1cc2c(cc1CC)C1OC2c2ccc(C(=O)NCc3ccc(C(=N)N)cc3)cc21 (racemic) [Example 315, (±)-N-[(4-carbamimidoylphenyl)methyl]-11,12-diethyl-15-oxatetracyclo[6.6.1.0^2,^7.0^9,1^4]-pentadeca-2,4,6,9(14),10,12-hexaene-4-carboxamide] | 1.82 |
| CCc1cc(N)nc(C)c1CNC(=O)c1ccc2c(c1)C1OC2c2ccc(-c3ccc(C)cc3C#N)cc21 (racemic) [Example 136, (±)-N-[(6-amino-4-ethyl-2-methylpyridin-3-yl)methyl]-12-(2-cyano-4-methylphenyl)-15-oxatetracyclo[6.6.1.0^2,^7.0^9,1^4] pentadeca-2,4,6,9,11,13-hexaene-4-carboxamide] | 3.98 |
| Cc1ccc(-c2ccc3c(c2)[C@H]2O[C@@H]3c3ccc(C(=O)NCc4c(C)cc(N)nc4C)cc32)c(C#N)c1 (single isomer, unassigned) [Example 140] | 5.01 |
| N=C(N)c1ccc(CNC(=O)c2ccc3c(c2)[C@@H]2O[C@H]3c3cc(C4CC4)c(C4CC4)cc32)cc1 (single isomer, unassigned) [Example 400] | 1 |
| Cc1cc(N)nc(C)c1CNC(=O)c1ccc2c(c1)C1OC2c2ccc(-c3cccc(C(F)(F)F)c3C#N)cc21 (racemic) [Example 158, (±)-N-[(6-amino-2,4-dimethylpyridin-3-yl)-methyl]-12-[2-cyano-3-(trifluoromethyl)phenyl]-15-oxatetracyclo[6.6.1.0^2,^7.0^9,1^4] pentadeca-2,4,6,9,11,13-hexaene-4-carboxamide] | 112 |
| CC(C)(F)c1ccc2c(c1)[C@H]1O[C@@H]2c2ccc(C(=O)NCc3ccc(C(=N)N)cc3)cc21 (single isomer, unassigned) [Example 284] | 6.31 |
| Cc1cc(N)nc(C)c1CNC(=O)c1ccc2c(c1)[C@@H]1O[C@H]2c2ccc(-c3cccnc3C)cc21 (single isomer, unassigned) [Example 212] | 70.8 |
